{
  "source": "patent US20260096978A1",
  "about": "“A METHOD FOR PREVENTING, […]/OR TREATING PTGS2-INDUCED SKIN DISORDERS AND RELATED DYSFUNCTIONS” (Symrise AG, priority 2022, published 2026)",
  "key": {"[1]": {"tested_on": "PTGS2", "test": "PTGS2 protein level (IHC staining) in ex vivo human skin biopsies exposed to solar simulated radiation", "assay_type": "cell-based", "settings": "SSR 250 J/cm^2; for PTGS2 protein level, mean as % of non-irradiated vehicle / PTGS2 protein level, Δ versus non-irradiated vehicle / PTGS2 protein level, mean score: day 3; for PTGS2 protein level, mean as % of non-irradiated vehicle: irradiated vehicle 198%; for PTGS2 protein level, Δ versus non-irradiated vehicle: irradiated vehicle Δ 98%; for PTGS2 protein level, mean score: non-irradiated vehicle 1.0302, irradiated vehicle 2.0439", "procedure": "(§1) In order to evaluate the efficacy of L-Carnosine on protecting skin from Solar Simulated Radiation (SSR), gene expression and protein level of PTGS2 were analysed. -Ex vivo human skin biopsies were topically treated with L-Carnosine at different concentrations (0.2% and 2.2%), and daily exposed to 250 J/cm^2 of SSR. Gene expression and protein modulation were assessed respectively at day 2 and day3. The radiation dose was selected following the literature, and represent the approximative amount of solar light acquirable under natural conditions by sunbathing.\n(§2) Human skin samples were obtained from plastic surgery of healthy patients (aged between 25 and 60), and not intensive sun exposed. The informed consent was obtained from patients and retained by clinic. For the studies, twelve 8 mm diameter punch biopsies were used for each treatment. The skin samples were cultured in modified Williams' E medium at air-liquid interface and, maintained in incubator at the following conditions: 37° C., 5% CO2 and 95% humidity.\n(§3) For these studies L-Carnosine was dissolved in vehicle (DMSO/PBS 1:25) at the following concentration 0.2% and 2.2%. Treatments were applied topically and renewed daily as follows: skin biopsies were cleaned with sterile cotton buds and 4 μl of treatment were applied on the biopsy's epidermis. All treated and the control samples were covered with 6 mm diameter delivery membranes.\n(§4) Skin irradiation was performed daily, with Suntest XLS+(Ametek Inc., USA) equipped with the provided IR filter and a DAY LIGHT filter, to obtain an emission spectrum between 300 and 800 nm. Every day the skin samples were irradiated with a SSR dose of 250 J/cm^2. Control samples were sham-irradiated under the same conditions.\nSkin samples were collected (day 3), fixed in formalin and paraffin embedded. Skin sections were immuno-stained with PTGS2 antibody (Thermo Fisher Scientific Inc., USA). The images of the skin sections were acquired, and the analysis was performed through Image-J application (NIH, USA)."}, "[2]": {"tested_on": "PTGS2", "test": "PTGS2 gene expression (real-time RT-PCR) in ex vivo human skin biopsies exposed to solar simulated radiation", "assay_type": "cell-based", "settings": "for PTGS2 gene expression, fold-change versus non-irradiated vehicle: SSR 250 J/cm^2 daily, day 2; for PTGS2 gene expression, % of irradiated vehicle: irradiated vehicle = 100; for PTGS2 gene expression, Δ versus irradiated vehicle: irradiated vehicle Δ = 0; for Effect on SSR-induced PTGS2 gene expression, in words: ex vivo human skin, SSR 250 J/cm^2", "procedure": "as §1, §2, §3, §4\nHuman skin biopsies were collected in cryo-vial containing a commercial RNA stabilization solution (RNAlater, Merck KGaA, Germany) and stored at −80° C. Total RNA was extracted using a commercial kit (Rneasy mini-kit, Qiagen GmbH, Germany) according to the manufacturer's instructions. The expression level of selected genes was determined using Real-time RT-PCR method with custom designed gene array (TaqMan® Array 96-Well Fast Plates, Thermo Fisher Scientific Inc., USA).\nGene expression changes were determined in three donors."}},
  "data": [
    {"smiles": "NCCC(=O)N[C@@H](Cc1cnc[nH]1)C(=O)O", "note": "[L-Carnosine]", "values": [
      {"measurement": "PTGS2 protein level, mean as % of non-irradiated vehicle", "setting": "[1]; L-Carnosine 0.2%", "value": 193, "unit": "%"},
      {"measurement": "PTGS2 protein level, Δ versus non-irradiated vehicle", "setting": "[1]; L-Carnosine 0.2%", "value": 93, "unit": "%"},
      {"measurement": "PTGS2 protein level, mean score", "setting": "[1]; L-Carnosine 0.2%", "value": 1.9913},
      {"measurement": "PTGS2 protein level, mean as % of non-irradiated vehicle", "setting": "[1]; L-Carnosine 2.2%", "value": 146, "unit": "%"},
      {"measurement": "PTGS2 protein level, Δ versus non-irradiated vehicle", "setting": "[1]; L-Carnosine 2.2%", "value": 46, "unit": "%"},
      {"measurement": "PTGS2 protein level, mean score", "setting": "[1]; L-Carnosine 2.2%", "value": 1.5091},
      {"measurement": "Effect on SSR-induced PTGS2 protein, in words", "setting": "[1]; ex vivo human skin", "value": "efficiently reduce the SSR-induced induction of the PTGS2 gene and the PTGS2-protein"},
      {"measurement": "PTGS2 gene expression, fold-change versus non-irradiated vehicle", "setting": "[2]; Donor #1, L-Carnosine 0.2% topical, irradiated vehicle 5.3", "value": 4.2, "unit": "fold-change"},
      {"measurement": "PTGS2 gene expression, % of irradiated vehicle", "setting": "[2]; Donor #1, L-Carnosine 0.2%", "value": 79, "unit": "%"},
      {"measurement": "PTGS2 gene expression, Δ versus irradiated vehicle", "setting": "[2]; Donor #1, L-Carnosine 0.2%", "value": "−21"},
      {"measurement": "PTGS2 gene expression, fold-change versus non-irradiated vehicle", "setting": "[2]; Donor #1, L-Carnosine 2.2% topical, irradiated vehicle 5.3", "value": 4.0, "unit": "fold-change"},
      {"measurement": "PTGS2 gene expression, % of irradiated vehicle", "setting": "[2]; Donor #1, L-Carnosine 2.2%", "value": 76, "unit": "%"},
      {"measurement": "PTGS2 gene expression, Δ versus irradiated vehicle", "setting": "[2]; Donor #1, L-Carnosine 2.2%", "value": "−24"},
      {"measurement": "PTGS2 gene expression, fold-change versus non-irradiated vehicle", "setting": "[2]; Donor #2, L-Carnosine 0.2% topical, irradiated vehicle 13.9", "value": 11.3, "unit": "fold-change"},
      {"measurement": "PTGS2 gene expression, % of irradiated vehicle", "setting": "[2]; Donor #2, L-Carnosine 0.2%", "value": 81, "unit": "%"},
      {"measurement": "PTGS2 gene expression, Δ versus irradiated vehicle", "setting": "[2]; Donor #2, L-Carnosine 0.2%", "value": "−19"},
      {"measurement": "PTGS2 gene expression, fold-change versus non-irradiated vehicle", "setting": "[2]; Donor #2, L-Carnosine 2.2% topical, irradiated vehicle 13.9", "value": 7.7, "unit": "fold-change"},
      {"measurement": "PTGS2 gene expression, % of irradiated vehicle", "setting": "[2]; Donor #2, L-Carnosine 2.2%", "value": 55, "unit": "%"},
      {"measurement": "PTGS2 gene expression, Δ versus irradiated vehicle", "setting": "[2]; Donor #2, L-Carnosine 2.2%", "value": "−45"},
      {"measurement": "PTGS2 gene expression, fold-change versus non-irradiated vehicle", "setting": "[2]; Donor #3, L-Carnosine 0.2% topical, irradiated vehicle 2.0", "value": 1.4, "unit": "fold-change"},
      {"measurement": "PTGS2 gene expression, % of irradiated vehicle", "setting": "[2]; Donor #3, L-Carnosine 0.2%", "value": 70, "unit": "%"},
      {"measurement": "PTGS2 gene expression, Δ versus irradiated vehicle", "setting": "[2]; Donor #3, L-Carnosine 0.2%", "value": "−30"},
      {"measurement": "PTGS2 gene expression, fold-change versus non-irradiated vehicle", "setting": "[2]; Donor #3, L-Carnosine 2.2% topical, irradiated vehicle 2.0", "value": 1.4, "unit": "fold-change"},
      {"measurement": "PTGS2 gene expression, % of irradiated vehicle", "setting": "[2]; Donor #3, L-Carnosine 2.2%", "value": 72, "unit": "%"},
      {"measurement": "PTGS2 gene expression, Δ versus irradiated vehicle", "setting": "[2]; Donor #3, L-Carnosine 2.2%", "value": "−28"},
      {"measurement": "Effect on SSR-induced PTGS2 gene expression, in words", "setting": "[2]", "value": "efficiently reduce the SSR-induced induction of the PTGS2 gene"},
      {"measurement": "Effect on SSR-induced PTGS2 gene expression, in words", "setting": "[2]; listed as L-carnosine", "value": "reduces the expression of PTGS2"}
    ]}
  ]
}
